Organism: Rattus norvegicus
Assay: Open TG-GATES - Regimen: Single
Format: toxicity, organism-based, Sprague-Dawley
Design: regimen Single, gender Male, age 6 weeks
Conditions: in vivo, po, route gavage; for Bas / Eos / Fbg / Hb / Lym / MCH / MCHC / MCV / Mono / Neu / RBC / Ret / WBC / APTT: tissue Blood; for KIDNEY_L / KIDNEY_R / KIDNEY_TOTAL: tissue Kidney; for LIVER: tissue Liver; for ALP / ALT / AST / CRE / Ca / Cl / DBIL / GLC / IP / K / LDH / Na / PL / RALB / TBIL / TC / TG / TP / gamma-GTP: tissue Plasma
[1] = 75 mg/kg, 3 h, dose level Middle

O=C1CN(/N=C/c2ccc(-c3ccc([N+](=O)[O-])cc3)o2)C(O)=N1 [DANTROLENE]
Bas (25 mg/kg, 3 h, dose level Low): 0% | Eos (25 mg/kg, 3 h, dose level Low): 1% | Fbg (25 mg/kg, 3 h, dose level Low): 205.2 mg/dL | Hb (25 mg/kg, 3 h, dose level Low): 13.6 g/dL | Lym (25 mg/kg, 3 h, dose level Low): 74.4% | MCH (25 mg/kg, 3 h, dose level Low): 22.5 pg | MCHC (25 mg/kg, 3 h, dose level Low): 34.1% | MCV (25 mg/kg, 3 h, dose level Low): 65.9 fL | Mono (25 mg/kg, 3 h, dose level Low): 8.4% | Neu (25 mg/kg, 3 h, dose level Low): 16.2% | RBC (25 mg/kg, 3 h, dose level Low): 604.8 x10_4/ul | Ret (25 mg/kg, 3 h, dose level Low): 10.4% | WBC (25 mg/kg, 3 h, dose level Low): 99.1 x10_2/uL | KIDNEY_L (25 mg/kg, 3 h, dose level Low): 1 g | KIDNEY_R (25 mg/kg, 3 h, dose level Low): 1 g | KIDNEY_TOTAL (25 mg/kg, 3 h, dose level Low): 1.9 g | LIVER (25 mg/kg, 3 h, dose level Low): 9.5 g | ALP (25 mg/kg, 3 h, dose level Low): 1009.8 IU/L | ALT (25 mg/kg, 3 h, dose level Low): 38.4 IU/L | AST (25 mg/kg, 3 h, dose level Low): 69.2 IU/L | CRE (25 mg/kg, 3 h, dose level Low): 0.6 mg/dL | Ca (25 mg/kg, 3 h, dose level Low): 10.5 mg/dL | Cl (25 mg/kg, 3 h, dose level Low): 101.8 meq/L | DBIL (25 mg/kg, 3 h, dose level Low): 0.03 mg/dL | GLC (25 mg/kg, 3 h, dose level Low): 213 mg/dL | IP (25 mg/kg, 3 h, dose level Low): 10.8 mg/dL | K (25 mg/kg, 3 h, dose level Low): 4.8 meq/L | LDH (25 mg/kg, 3 h, dose level Low): 97.8 IU/L | Na (25 mg/kg, 3 h, dose level Low): 139.2 meq/L | PL (25 mg/kg, 3 h, dose level Low): 141.6 mg/dL | RALB (25 mg/kg, 3 h, dose level Low): 3.8 g/dL | TBIL (25 mg/kg, 3 h, dose level Low): 0.4 mg/dL | TC (25 mg/kg, 3 h, dose level Low): 83.4 mg/dL | TG (25 mg/kg, 3 h, dose level Low): 39.4 mg/dL | TP (25 mg/kg, 3 h, dose level Low): 5.6 g/dL | gamma-GTP (25 mg/kg, 3 h, dose level Low): 2.6 IU/L | TERMINAL_BW (25 mg/kg, 6 h, dose level Low): 191.8 g | APTT (25 mg/kg, 6 h, dose level Low): 16.9 s | Bas (25 mg/kg, 6 h, dose level Low): 0% | Eos (25 mg/kg, 6 h, dose level Low): 1.2% | Fbg (25 mg/kg, 6 h, dose level Low): 210.4 mg/dL | Hb (25 mg/kg, 6 h, dose level Low): 13.8 g/dL | Lym (25 mg/kg, 6 h, dose level Low): 77% | MCH (25 mg/kg, 6 h, dose level Low): 21.9 pg | MCHC (25 mg/kg, 6 h, dose level Low): 34.3% | MCV (25 mg/kg, 6 h, dose level Low): 64.1 fL | Mono (25 mg/kg, 6 h, dose level Low): 8% | Neu (25 mg/kg, 6 h, dose level Low): 14% | RBC (25 mg/kg, 6 h, dose level Low): 632.4 x10_4/ul | Ret (25 mg/kg, 6 h, dose level Low): 12.6% | WBC (25 mg/kg, 6 h, dose level Low): 89.5 x10_2/uL | KIDNEY_L (25 mg/kg, 6 h, dose level Low): 0.9 g | KIDNEY_R (25 mg/kg, 6 h, dose level Low): 0.9 g | KIDNEY_TOTAL (25 mg/kg, 6 h, dose level Low): 1.8 g | LIVER (25 mg/kg, 6 h, dose level Low): 8.7 g | ALP (25 mg/kg, 6 h, dose level Low): 698.6 IU/L | ALT (25 mg/kg, 6 h, dose level Low): 30.4 IU/L | AST (25 mg/kg, 6 h, dose level Low): 60.4 IU/L | CRE (25 mg/kg, 6 h, dose level Low): 0.5 mg/dL | Ca (25 mg/kg, 6 h, dose level Low): 10.3 mg/dL | Cl (25 mg/kg, 6 h, dose level Low): 103 meq/L | DBIL (25 mg/kg, 6 h, dose level Low): 0.07 mg/dL | GLC (25 mg/kg, 6 h, dose level Low): 188.2 mg/dL | IP (25 mg/kg, 6 h, dose level Low): 9.7 mg/dL | K (25 mg/kg, 6 h, dose level Low): 4.7 meq/L | LDH (25 mg/kg, 6 h, dose level Low): 100.8 IU/L | Na (25 mg/kg, 6 h, dose level Low): 139.2 meq/L | PL (25 mg/kg, 6 h, dose level Low): 141.6 mg/dL | RALB (25 mg/kg, 6 h, dose level Low): 3.7 g/dL | TBIL (25 mg/kg, 6 h, dose level Low): 0.4 mg/dL | TC (25 mg/kg, 6 h, dose level Low): 78.8 mg/dL | TG (25 mg/kg, 6 h, dose level Low): 44 mg/dL | TP (25 mg/kg, 6 h, dose level Low): 5.3 g/dL | gamma-GTP (25 mg/kg, 6 h, dose level Low): 2 IU/L | TERMINAL_BW (25 mg/kg, 9 h, dose level Low): 189.9 g | APTT (25 mg/kg, 9 h, dose level Low): 16.4 s | Bas (25 mg/kg, 9 h, dose level Low): 0% | Eos (25 mg/kg, 9 h, dose level Low): 0.6% | Fbg (25 mg/kg, 9 h, dose level Low): 209.8 mg/dL | Hb (25 mg/kg, 9 h, dose level Low): 13.9 g/dL | Lym (25 mg/kg, 9 h, dose level Low): 80.6% | MCH (25 mg/kg, 9 h, dose level Low): 21.6 pg | MCHC (25 mg/kg, 9 h, dose level Low): 33.1% | MCV (25 mg/kg, 9 h, dose level Low): 65.4 fL | Mono (25 mg/kg, 9 h, dose level Low): 5% | Neu (25 mg/kg, 9 h, dose level Low): 14% | RBC (25 mg/kg, 9 h, dose level Low): 644 x10_4/ul | Ret (25 mg/kg, 9 h, dose level Low): 10.9% | WBC (25 mg/kg, 9 h, dose level Low): 83 x10_2/uL | KIDNEY_L (25 mg/kg, 9 h, dose level Low): 0.9 g | KIDNEY_R (25 mg/kg, 9 h, dose level Low): 0.9 g | KIDNEY_TOTAL (25 mg/kg, 9 h, dose level Low): 1.8 g | LIVER (25 mg/kg, 9 h, dose level Low): 8.2 g | ALP (25 mg/kg, 9 h, dose level Low): 723.6 IU/L | ALT (25 mg/kg, 9 h, dose level Low): 22.2 IU/L | AST (25 mg/kg, 9 h, dose level Low): 49.4 IU/L | CRE (25 mg/kg, 9 h, dose level Low): 0.6 mg/dL | Ca (25 mg/kg, 9 h, dose level Low): 10.4 mg/dL | Cl (25 mg/kg, 9 h, dose level Low): 104.4 meq/L | DBIL (25 mg/kg, 9 h, dose level Low): 0.062 mg/dL | GLC (25 mg/kg, 9 h, dose level Low): 199.4 mg/dL | IP (25 mg/kg, 9 h, dose level Low): 10.1 mg/dL | K (25 mg/kg, 9 h, dose level Low): 5.1 meq/L | LDH (25 mg/kg, 9 h, dose level Low): 75.2 IU/L | Na (25 mg/kg, 9 h, dose level Low): 139 meq/L | PL (25 mg/kg, 9 h, dose level Low): 137.2 mg/dL | RALB (25 mg/kg, 9 h, dose level Low): 3.7 g/dL | TBIL (25 mg/kg, 9 h, dose level Low): 0.4 mg/dL | TC (25 mg/kg, 9 h, dose level Low): 69.8 mg/dL | TG (25 mg/kg, 9 h, dose level Low): 42.8 mg/dL | TP (25 mg/kg, 9 h, dose level Low): 5.5 g/dL | gamma-GTP (25 mg/kg, 9 h, dose level Low): 2 IU/L | TERMINAL_BW (25 mg/kg, 24 h, dose level Low): 208.5 g | APTT (25 mg/kg, 24 h, dose level Low): 16.6 s | Bas (25 mg/kg, 24 h, dose level Low): 0% | Eos (25 mg/kg, 24 h, dose level Low): 1% | Fbg (25 mg/kg, 24 h, dose level Low): 200.4 mg/dL | Hb (25 mg/kg, 24 h, dose level Low): 13.1 g/dL | Lym (25 mg/kg, 24 h, dose level Low): 81.2% | MCH (25 mg/kg, 24 h, dose level Low): 21.9 pg | MCHC (25 mg/kg, 24 h, dose level Low): 33.5% | MCV (25 mg/kg, 24 h, dose level Low): 65.4 fL | Mono (25 mg/kg, 24 h, dose level Low): 6.8% | RBC (25 mg/kg, 24 h, dose level Low): 600.4 x10_4/ul | Ret (25 mg/kg, 24 h, dose level Low): 11.4% | WBC (25 mg/kg, 24 h, dose level Low): 97.3 x10_2/uL | KIDNEY_L (25 mg/kg, 24 h, dose level Low): 1 g | KIDNEY_R (25 mg/kg, 24 h, dose level Low): 1 g | KIDNEY_TOTAL (25 mg/kg, 24 h, dose level Low): 2 g | LIVER (25 mg/kg, 24 h, dose level Low): 10.4 g | ALP (25 mg/kg, 24 h, dose level Low): 1049.2 IU/L | ALT (25 mg/kg, 24 h, dose level Low): 35.8 IU/L | AST (25 mg/kg, 24 h, dose level Low): 71.2 IU/L | CRE (25 mg/kg, 24 h, dose level Low): 0.5 mg/dL | Ca (25 mg/kg, 24 h, dose level Low): 11.1 mg/dL | Cl (25 mg/kg, 24 h, dose level Low): 105.4 meq/L | DBIL (25 mg/kg, 24 h, dose level Low): 0.012 mg/dL | GLC (25 mg/kg, 24 h, dose level Low): 198.2 mg/dL | IP (25 mg/kg, 24 h, dose level Low): 6.5 mg/dL | K (25 mg/kg, 24 h, dose level Low): 4.7 meq/L | Na (25 mg/kg, 24 h, dose level Low): 142 meq/L | PL (25 mg/kg, 24 h, dose level Low): 142.4 mg/dL | RALB (25 mg/kg, 24 h, dose level Low): 3.9 g/dL | TBIL (25 mg/kg, 24 h, dose level Low): 0.3 mg/dL | TC (25 mg/kg, 24 h, dose level Low): 77.8 mg/dL | TG (25 mg/kg, 24 h, dose level Low): 73.2 mg/dL | TP (25 mg/kg, 24 h, dose level Low): 5.6 g/dL | gamma-GTP (25 mg/kg, 24 h, dose level Low): 1.6 IU/L | TERMINAL_BW [1]: 194 g | APTT [1]: 16.9 s
